Measurements reported in patent publication US20230114207A1, “THE COMBINATION OF CYCLIN DEPENDENT KINASE 7 INHIBITOR AND IMMUNOTHERAPY FOR TREATMENT OF CANCER” (Dana-Farber Cancer Institute, Inc., priority 2019, published 2023).

How the values were obtained:
[1] = test system: TNFα, CXCL9 and CXCL10 in BALF; assay: Luminex analysis of murine BAL fluid; format: in vivo, mouse; settings: after 7-day treatment
Experimental: Mouse lung bronchoalveolar lavage (BAL) was performed by intratracheal injection of 2 ml of sterile PBS followed by collection by aspiration. TNFα, CXCL9 and CXCL10 levels were measured using mouse Cytokine/Chemokine 32-plex Assay (MILLIPLEX, Millipore) on Luminex® SD system (Luminex). Concentrations (pg/ml) of each protein were derived from 5-parameter curve fitting models according to the manufacturer's instructions.

[2] = test system: C-terminal domain (CTD) phosphorylation of RNA Pol II; assay: Western blotting of RNA Pol II CTD phosphorylation in SCLC lines; format: cell-based, mouse, human; settings: 24 hr
Experimental: Cells in culture were collected by centrifuging at 1,500 rpm and then washed with ice-cold PBS twice to completely remove residual medium. RIPA lysis buffer (Thermo Fisher Scientific, Cat #89900) supplemented with Halt™ Protease and Phosphatase Inhibitor Cocktail (Thermo Fisher Scientific, Cat #78440) was added to cell pellets to extract protein. Protein concentrations in lysates were measured by Pierce™ BCA Protein Assay Kit (Thermo Fisher Scientific, Cat #23225) and followed by the addition of SDS loading buffer (6×) and heated at 95° C. for 5 min. Equal amount of protein samples was subjected to 4-20% gradient gel SDS-PAGE and transferred to a nitrocellulose membrane (Bio-Rad, Cat #1704271). The membrane was blocked in Odyssey® Blocking Buffer (LI-COR, Cat #927-50003) at room temperature for 1 hour and incubated with appropriate antibodies at 4° C. overnight (Key Resources Table). Antibodies were diluted in TBST (TBS with 0.1% Tween) with 20% LI-COR Odyssey Blocking Buffer. On the next day, the membrane was washed with TBST (TBS with 0.1% Tween) four times and incubated with appropriate secondary antibodies (LI-COR, anti-Rabbit, Cat #925-32213; anti-Mouse, Cat #925-68072) at room temperature for 1 hour. Membranes were imaged using the LI-COR Odyssey® Imaging System.

[3] = test system: RPP631 and GLC16 cells; assay: Immunofluorescence of γH2AX foci and micronuclei; format: cell-based, mouse, human
Experimental: Before fixation, cells in PBS were seeded for 30 min on 0.01% Poly-lysine coated coverslip. Cells were then fixed in 4% paraformaldehyde (Diluted the 32% paraformaldehyde in PBS, Electron Microscopy Sciences 15714) for 10 min at room temperature. Cells were washed three times for 5 min with 200 mM glycine containing PBS, followed by permeabilization with 0.3% Triton X-100 in PBS for 15 min. After blocking with 5% bovine serum albumin (BSA) in PBS for 1 hour, cells were incubated with primary antibody (γH2A.X, Cell signaling 9718, 1:200) diluted in a 5% BSA in PBS solution overnight at 4° C. After washing four times with PBS, cells were incubated with Alexa Fluor Plus 555 (Invitrogen A32732, 1: 500) secondary antibody for 1 hour and washed three times with PBS. Cell nuclei were counterstained with DAPI (Biolengend 422801, diluted to 600 nM in PBS) for 5 min. Cells were washed two more times in PBS before mounting with Fluorescence Mounting Medium (Dako, S3023). Images were acquired using Zeiss 880 Laser Scanning Confocal Microscope and were processed by FIJI (NIH). Micronucleus were identified manually by distinct DAPI staining outside the main nucleus.

[4] = In vivo toxicity evaluation in C57BL/6 mice
Experimental: For evaluation of in vivo toxicity of YKL-5-124, a dose-escalating study from 2.5 mg/kg to 15 mg/kg q.d. five times/week via intraperitoneal injection (i.p.) was tested in C57BL/6 mice. In vivo toxicities including body weight and blood cell counts including platelet, red blood cells and white blood cells were monitored. Similarly, a separate cohort was used to evaluate in vivo toxicity of combining YKL-5-124 and anti-PD-1 in C57BL/6 mice. For treatment studies, mice were evaluated by MRI imaging (Preclinical Imaging Laboratory, NYULH) to quantify lung tumor burden before for randomization and after drug treatment for efficacy evaluation. Mice were treated with either vehicle and isotype IgG (Control), anti-PD-1 200 μg/mouse (clone 29F.1A12), YKL-5-124 10 mg/kg, or combined anti-PD-1 and YKL-5-124 (Combo). YKL-5-124 was administered daily from Monday to Friday, and PD-1 antibody was administered three times a week (Monday, Wednesday, and Friday). For chemotherapy, cisplatin (5 mg/kg) was given on Day 1 and etoposide (10 mg/kg) on Day 1, 2, 3 every seven days per cycle for three cycles.

[5] = test system: HAP1 cells expressing CDK7 wild-type (WT); assay: RT-qPCR of TNF and CXCL10 in HAP1 CDK7 WT cells; format: cell-based, human; settings: 100 nM, 48 hr
Experimental: Cell pellets were collected and then subjected to total RNA extraction using RNeasy Plus Mini Kit (QIAGEN, Cat #74136) according to the manufacturer's instructions, or using TRIzol:Chloroform phase-separation by centrifugation followed by RNA precipitation using isopropanol. The extracted RNA was reversely transcribed into cDNA using the High-Capacity RNA-to-cDNA™ Kit (Thermo Fisher Scientific, Cat #4387406) according to the manufacturer's instructions. The obtained cDNA samples were diluted and used for RT-qPCR. PowerUp™ SYBR™ Green Master Mix (Thermo Fisher Scientific, Cat #A25742) or TaqMan Gene Expression Master Mix (Life Technologies, Cat #4369514). Gene specific primers with sequences listed in Table 3 were used for PCR amplification and detection on the StepOnePlus™ Real-Time PCR System (Thermo Fisher Scientific). RT-qPCR data were normalized to Actb (mouse cells) or GUSB (human cells) and presented as fold changes of gene expression in the test sample compared to the control.

## C=CC(=O)Nc1ccc(C(=O)Nc2n[nH]c3c2CN(C(=O)N[C@H](CN(C)C)c2ccccc2)C3(C)C)cc1 [YKL-5-124]
[1]
  TNFα, CXCL9 and CXCL10 in BALF: pronounced increase
[2]
  C-terminal domain (CTD) phosphorylation of RNA Pol II (Ser2, Ser5): no effect
[3]; RPP631 and GLC16
  percentages of cells containing micronuclei: considerably increased
[3]; after 48 hr
  γH2AX foci: significant increase
[4]; C57BL/6, mouse, in vivo, ip
  well tolerated dose: up to 10 mg/kg
[4]; dose up to 10 mg/kg
  body weight and blood counts: no significant change
[5]
  TNF and CXCL10 expression: significant increase
